The test system of one assay is HEK293 cells proteome. In words: Tandem-Mass-Tagging global (whole) proteomics in HEK293 cells. Conditions: 10 nM. It is filed as cell-based, human. As for the experimental part:
For unbiased degradation profiling of compounds at the proteome level, HEK293 cells were seeded onto 10 cm plates at a density of 2–2.5 × 10^6 cells per plate. […] After treatment, cells were washed twice with PBS (Gibco), collected in Lobinding tubes (Merck) and lysed in RIPA buffer supplemented with Protease (Roche) and Phosphatase (Roche) inhibitors as previously described for 20 min on ice. Lysates were cleared via centrifugation and protein concentrations were determined by using Pierce BCA assay (Thermo Scientific). Similarly, brain and liver tissues from control and KH1 (24) treated mice were lysed as described above. One hundred and fifty micrograms of protein from tissues or cells for each condition was aliquoted into LoBind tubes (Eppendorf) and the STRAP (Protifi) protocol was followed according to manufacturers’ instructions with slight modifications. Briefly, liquid protein samples mixed with 2× Lysis buffer (10%SDS, 100 mM TEAB pH 8.5), protein was reduced with 5 mM DTT final concentration at 55 °C for 15 min, alkylated (final concentration 20 mM IAA or CAA) at room temperature for 10 min and then acidified (12% phosphoric acid). Protein was then trapped into S-trap columns and washed with S-trap binding/wash buffer (100 mM TEAB in 90% methanol) via centrifugation at 4000 × g for 30 s. Cleaned proteins then went through tryptic digestion (Trypsin (Thermo Scientific) in 50 mM TEAB) overnight at 37 °C or 2 h at 47 °C. Digested peptides were sequentially eluted in 80 µL of 50 mM TEAB (Sigma–Aldrich), 0.2% formic acid (Sigma–Aldrich) and 50% acetonitrile (Sigma–Aldrich). Elutions were pooled and dried down. Dried and cleaned peptides were reconstituted in 110 µL of 100 mM TEAB. TMT-16-plex reagent (Thermo Scientific) was brought into room temperature and reconstituted in 40 µL of anhydrous acetonitrile. TMT reagent solution was transferred to the peptides and incubated on thermoshaker (Eppendorf) at 400 rpm at room temperature for 1 h in the dark. Peptides were quenched by the addition of 8 µL of 5% Hydroxylamine for 1 h at room temperature. TMT-labelled peptides were pooled together and dried down in the speedVac for downstream processing. […]
The dried peptides were reconstituted in 0.1% formic acid and analyzed on an Orbitrap Ascend mass spectrometer coupled to a Thermo Fisher Scientific Vanquish Neo UHPLC. […] The precursor ions for MS2 were isolated using a Quadrupole mass filter at a 0.7 Da isolation width, fragmented using a normalised 30% HCD of ion routing multipole and analyzed using ion trap. The top 10 MS2 fragment ions in a subsequent scan were isolated and fragmented using HCD at a 55% normalised collision energy and analyzed using an Orbitrap mass analyser at a 60,000 resolution, in the scan range of 100–500 m/z. […]

The subject of assay [1] is HEK293 cells phosphoproteome. Put plainly: Phosphoproteomics in HEK293 cells. The assay is classed as cell-based, human. The arrangement: scale not given here. The following applies: vs DMSO; phosphosite abundance difference; MOESM9. On the procedure:
IMAC beads were prepared from Ni-NTA (nitrilotriacetic acid) superflow agarose beads. The nickel was stripped with 100 mM EDTA and incubated in an aqueous solution of 10 mM iron (III) chloride (FeCl3). Dried peptide fractions were reconstituted to a concentration of 0.5 μg/μL in 80% ACN/0.1% TFA. Peptide mixtures were enriched for phosphorylated peptides with 5 μL IMAC beads for 30 min with end-to-end rotation.
Enriched IMAC beads were loaded on Empore C18 silica-packed stage tips. Stage tips were equilibrated with acetonitrile followed by 50% ACN/0.1% FA then 1% FA. The beads with enriched peptides were loaded onto C18 stage tips and washed with 80% ACN/0.1% TFA. Phosphorylated peptides were eluted from IMAC beads with 500 mM dibasic sodium phosphate, pH 7.0. These peptides were washed with 1% FA before elution using 50% acetonitrile in 0.1% FA. The peptides were then dried by SpeedVac and stored at −20 °C until mass spectrometry analysis. The dried phosphopeptides were reconstituted in 0.1% formic acid and analyzed on an Orbitrap Ascend mass spectrometer coupled to a Thermo Fisher Scientific Vanquish Neo UHPLC. […] The total run time was set to 155 min. A survey full scan MS (from m/z 350–1500) was acquired in the Orbitrap at a resolution of 120,000 at 200 m/z. The most intense ions with charge state ≥2 were isolated and fragmented using higher collision dissociation (HCD) fragmentation, with 30% normalised collision energy, and detected at a mass resolution of 50,000 at 200 m/z. The isolation window was set at 1.6. The phosphoproteomics raw data were searched using SEQUEST HT search engines with Proteome Discoverer 3.0 (Thermo Fisher Scientific). The following parameters were used for searches: Precursor mass tolerance 10 ppm, fragment mass tolerance 0.02, enzyme: trypsin, […], fixed modification: carbamidomethylation of cysteine residues and TMT of lysine and N-terminal, dynamic modification: oxidation of methionine and phosphorylation of serine, threonine and tyrosine. The data were filtered for 1% PSM and peptide level. A two-tailed t-test with 250 randomisations was performed in Perseus software (v1.6.15.0) to assess statistical significance between groups. The resulting data were visualised as a volcano plot using GraphPad Prism (v10.1.2).

As to `Cn1nc(N2CCC(=O)NC2=O)c2ccc(CN3CCN(Cc4ccc(-c5cn(-c6ccc(-c7cn8nccc(C(=O)Nc9cnccc9N9CCOCC9)c8n7)cc6)nn5)nc4)CC3)cc21` [compound 24], in the assay with HEK293 cells proteome (4 and 24 h, vs DMSO and negative control 27), the proteome-wide selectivity entry was “consistent proteome-wide selectivity for GSK3α and GSK3β”. In addition, the proteome-wide selectivity result in the assay with HEK293 cells proteome (2 h, vs DMSO and negative control) was “exquisite selectivity for GSK3 paralogs”. Also, the “β-catenin abundance, log2 fold change” value in the assay on HEK293 cells proteome (4 h, p < 0.0005) was “+0.63”. Besides, the “β-catenin abundance, log2 fold change” value in the assay on HEK293 cells proteome (24 h, p < 0.005) is reported as “+0.89”. Besides, in assay [1], the “Difference, Q5PRF9 1xPhospho [S592(100)] SAMD4B” value worked out at 0.2452; the “Difference, Q8NEM7 1xPhospho [S437(100)] SUPT20H” value came to 0.1561; the “Difference, Q96KQ7 1xPhospho [S140(100)] EHMT2” value is reported as 0.2159; the “Difference, Q15398 1xPhospho [S725(100)] DLGAP5” value is on record as -0.5208. The “Difference, Q15911 1xPhospho [S426(100)] ZFHX3” value in assay [1] is given as -0.09567.

The record behind these values is article PMC12501029, “Discovery of a CNS active GSK3 degrader using orthogonally reactive linker screening” (Nature Communications, 2025).
